According to ChEMBL document CHEMBL1201862, “PubChem BioAssay data set” (2004):
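Five concentrations, 48 hours, 96-well plates. GI50 = concentration required for 50% inhibition of growth.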 Active and inactive are the calls of the source. Rule as the data show it: active = GI50 up to about 1.1 µM and inactive = higher.

Assays:
Experiment in all cases: NCI tumour cell line growth inhibition, 48 h
786-0 = system: 786-0
A498 = system: A498
A549 = system: A549
ACHN = system: ACHN
BT-549 = system: BT-549
CAKI-1 = system: CAKI-1
COLO 205 = system: COLO 205
DU-145 = system: DU-145
EKVX = system: EKVX
HCT-116 = system: HCT-116
HCT-15 = system: HCT-15
HOP-62 = system: HOP-62
HOP-92 = system: HOP-92
HT-29 = system: HT-29
Hs-578T = system: Hs-578T
IGROV-1 = system: IGROV-1
KM12 = system: KM12
LOX IMVI = system: LOX IMVI
M14 = system: M14
MCF7 = system: MCF7
MDA-MB-231 = system: MDA-MB-231
MDA-MB-435 = system: MDA-MB-435
MDA-N = system: MDA-N
MOLT-4 = system: MOLT-4
Malme-3M = system: Malme-3M
NCI-H226 = system: NCI-H226
NCI-H23 = system: NCI-H23
NCI-H460 = system: NCI-H460
NCI-H522 = system: NCI-H522
NCI/ADR-RES = system: NCI/ADR-RES
OVCAR-3 = system: OVCAR-3
OVCAR-4 = system: OVCAR-4
OVCAR-5 = system: OVCAR-5
OVCAR-8 = system: OVCAR-8
PC-3 = system: PC-3
RPMI-8226 = system: RPMI-8226
RXF 393 = system: RXF 393
SF-268 = system: SF-268
SF-295 = system: SF-295
SF-539 = system: SF-539
SK-MEL-28 = system: SK-MEL-28
SK-MEL-2 = system: SK-MEL-2
SK-MEL-5 = system: SK-MEL-5
SK-OV-3 = system: SK-OV-3
SNB-19 = system: SNB-19
SNB-75 = system: SNB-75
SW-620 = system: SW-620
T47D = system: T47D
TK-10 = system: TK-10
U-251 = system: U-251
UACC-257 = system: UACC-257
UACC-62 = system: UACC-62
UO-31 = system: UO-31

In the case of Cc1ccc(S(=O)(=O)NC(CN)C(=O)O)cc1 (stereo not drawn), the GI50 (786-0) is reported as > 100 µM (inactive), the GI50 (A498) is reported as > 100 µM (inactive) and the GI50 (A549) is reported as > 100 µM (inactive). For the same compound, the GI50 (ACHN) was > 100 µM (inactive), the GI50 (BT-549) was > 100 µM (inactive) and the GI50 (CAKI-1) was > 100 µM (inactive). For the same compound, the GI50 (COLO 205) was > 100 µM (inactive), the GI50 (DU-145) was > 100 µM (inactive) and the GI50 (EKVX) was > 100 µM (inactive). The GI50 (HCT-116) was > 100 µM (inactive), the GI50 (HCT-15) was > 100 µM and the GI50 (HOP-62) was > 100 µM (inactive). For the same compound, the GI50 (HOP-92) was > 100 µM (inactive), the GI50 (HT-29) was > 100 µM (inactive) and the GI50 (Hs-578T) was > 100 µM (inactive). The GI50 (IGROV-1) was > 100 µM (inactive), the GI50 (KM12) was > 100 µM (inactive) and the GI50 (LOX IMVI) was > 100 µM (inactive). The GI50 (M14) was > 100 µM (inactive), the GI50 (MCF7) was > 100 µM (inactive) and the GI50 (MDA-MB-231) was > 100 µM (inactive). For the same compound, the GI50 (MDA-MB-435) was > 100 µM (inactive), the GI50 (MDA-N) was > 100 µM (inactive) and the GI50 (MOLT-4) was 36.8 µM (inactive). For the same compound, the GI50 (Malme-3M) was > 100 µM (inactive), the GI50 (NCI-H226) was > 100 µM (inactive) and the GI50 (NCI-H23) was > 100 µM (inactive). The GI50 (NCI-H460) was > 100 µM (inactive), the GI50 (NCI-H522) was > 100 µM (inactive) and the GI50 (NCI/ADR-RES) was > 100 µM (inactive). The GI50 (OVCAR-3) was > 100 µM (inactive), the GI50 (OVCAR-4) was > 100 µM (inactive) and the GI50 (OVCAR-5) was > 100 µM (inactive). The GI50 (OVCAR-8) was > 100 µM (inactive), the GI50 (PC-3) was > 100 µM (inactive) and the GI50 (RPMI-8226) was > 100 µM (inactive). For the same compound, the GI50 (RXF 393) was > 100 µM (inactive), the GI50 (SF-268) was > 100 µM (inactive) and the GI50 (SF-295) was > 100 µM (inactive). The GI50 (SF-539) was > 100 µM (inactive), the GI50 (SK-MEL-28) was > 100 µM (inactive) and the GI50 (SK-MEL-2) was > 100 µM (inactive). The GI50 (SK-MEL-5) was > 100 µM (inactive), the GI50 (SK-OV-3) was > 100 µM (inactive) and the GI50 (SNB-19) was > 100 µM (inactive). The GI50 (SNB-75) was > 100 µM (inactive), the GI50 (SW-620) was > 100 µM (inactive) and the GI50 (T47D) was > 100 µM (inactive). For the same compound, the GI50 (TK-10) was > 100 µM (inactive), the GI50 (U-251) was > 100 µM (inactive) and the GI50 (UACC-257) was > 100 µM (inactive). For the same compound, the GI50 (UACC-62) was > 100 µM (inactive) and the GI50 (UO-31) was > 100 µM (inactive).
